Reference: PubChem BioAssay AID687022 (Broad Institute, 2013)
Activity calls are given as the source filed them.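 The calls were made as follows: active = Fitted curve of melting temperature shift crosses the 1.0 threshold at or below the sample's highest valid tested concentration; inconclusive = Flat fit with activity 30 to 70, or invalid fit; inactive = Opposite direction, flat within 30, or no crossing.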

Molecular target: Fibroblast growth factor 22 (Homo sapiens) (UniProt Q9HCT0)
Experiment: FGF22 ligand-induced thermal stabilization – biophysical, thermal shift, cherry-pick, FGF22 synaptogenesis inhibitor project, dose response (AID 687022)
Conditions: recombinant FGF22 thermal shift, SYPRO orange melting

Sequence of Fibroblast growth factor 22 (Homo sapiens) (Q9HCT0 whole entry, looked up): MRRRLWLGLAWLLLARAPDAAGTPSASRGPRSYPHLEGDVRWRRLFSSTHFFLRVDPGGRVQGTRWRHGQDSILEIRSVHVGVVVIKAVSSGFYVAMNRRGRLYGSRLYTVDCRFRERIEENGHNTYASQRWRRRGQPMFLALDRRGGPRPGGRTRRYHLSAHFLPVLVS

SMILES	AbsAC1 (concentration giving Tm-shift threshold 1.0)
COc1ccc(N(C)S(=O)(=O)c2cccc(C(=O)Nc3ccc(N4CCOCC4)cc3)c2)cc1	9 µM
S=C(Nc1ccc(N2CCOCC2)cc1)Nc1ccc2snnc2c1	9.95 µM
CCc1ccc(N2CC(C(=O)OCC(=O)Nc3ccc(C#N)cc3)CC2=O)cc1 (configuration not stated)	20.8 µM
Cc1ccc(Cl)cc1N1CCN(C(=O)Cc2c(C(=O)O)[nH]c3ccc(Cl)cc23)CC1	4.47 µM
C[C@@H]1CN([C@@H](C)CO)C(=O)c2cc(NS(=O)(=O)c3ccc(Cl)cc3)ccc2O[C@@H]1CN(C)S(=O)(=O)c1ccc(F)cc1	21.9 µM
Cc1ccc(C(=O)Nc2nc(=O)n(C(=O)C3CC3)s2)cc1	11.1 µM
C[C@H]1CN([C@@H](C)CO)S(=O)(=O)c2ccc(C3=CCCC3)cc2O[C@H]1CN(C)C(=O)Nc1ccc2c(c1)OCO2	22.9 µM
O=C(Nc1nccs1)C1CC(=O)N(c2ccc(F)cc2)C1 (configuration not stated)	8.93 µM
COc1cc(NC(=O)c2cnc(N)o2)cc(C(=O)Nc2cccc(C(F)(F)F)c2)c1	3.44 µM
O=C(COc1ccc([N+](=O)[O-])cc1)Nc1cccc(C(=O)Nc2ccccc2C(=O)O)c1	3.74 µM
O=C(NC1CC1)c1cccc(NC(=O)c2cnn(-c3ccccc3)n2)c1	11.7 µM
O=C(Nc1nc(-c2ccccn2)cs1)c1cc2ccccc2o1	16.1 µM
O=[N+]([O-])c1ccc(S(=O)(=O)Nc2nnc(C(F)(F)F)s2)cc1	4.67 µM
CCOC(=O)C(c1c(O)c2ccccc2oc1=O)c1c(O)c2ccccc2oc1=O	> 5 µM (inactive)
Cc1noc(NC(=O)c2cccc(Cl)c2Cl)c1C#N	32.7 µM
O=C(Nc1ccc(S(=O)(=O)N2CCCC2)cc1)c1cccs1	9.33 µM
COc1ccc(/C=N/NC(=O)c2cc(-c3ccc4c(c3)OCO4)n[nH]2)cc1OC	18.1 µM
COc1ccc(NS(=O)(=O)c2ccc(Cl)c(N)c2)cc1Br	4.09 µM
O=C(N/N=C/c1ccc(C(F)(F)F)cc1)c1ccc(O)cc1	2.48 µM
Oc1ccc(-c2nnc(Nc3cccc(O)c3)c3ccccc23)cc1	5.28 µM
O=S(=O)(Nc1nnc(C(F)(F)F)s1)c1ccc(Cl)cc1	3.42 µM

SMILES	AbsAC1 (concentration giving Tm-shift threshold 1.0)
COc1cc(/C=N/NC(=O)CCn2c3ccccc3c3ccccc32)ccc1O	15.9 µM
S=C(NCCN1CCOCC1)Nc1ccc(-c2nc3ccccc3[nH]2)cc1	7.5 µM
COc1ccc(/C=N/NC(=O)c2ccc(NS(=O)(=O)c3cccs3)cc2)cc1	7.28 µM
CN(NC1OC(=O)c2ccccc21)c1ncc(C(F)(F)F)cc1Cl (configuration not stated)	29.3 µM
CC1(C(=O)NS(=O)(=O)Cc2cccc(Cl)c2)CCN1C(=O)C1(c2ccc(Cl)cc2)CCC1 (configuration not stated)	> 10 µM (inactive)
O=C(N/N=C/c1c[nH]c2ccc(Br)cc12)c1ccc2c(c1)OCO2	14.3 µM
C/C(=N\NC(=O)COc1ccc(C)cc1C(C)C)c1cc2ccccc2o1	20.9 µM
CC(C)n1c(=O)c2ccccc2n1Cc1cn(-c2ccc(Cl)cc2)nn1	3.24 µM
NS(=O)(=O)c1cc(C(=O)NC2CCSc3ccccc32)ccc1Cl (configuration not stated)	9.54 µM
COc1cccc(NC(=O)CN(C)C(=O)c2ccc(NC3CC3)c([N+](=O)[O-])c2)c1	5.08 µM
O=C(N/N=C/c1ccc[nH]1)c1cc2ccccc2cc1O	3.23 µM
CCOC(=O)N1CCN(C(=O)CCCCCn2c(=S)[nH]c3ccsc3c2=O)CC1	13.8 µM
COc1cccc(NC(=O)N(C)C[C@H]2Oc3cc(-c4ccccc4F)ccc3S(=O)(=O)N([C@H](C)CO)C[C@@H]2C)c1	8.76 µM
C/C(=N\NC(=O)c1cccc(S(=O)(=O)N2CCOCC2)c1)c1ccc(OC(F)F)cc1	21.9 µM
O=C(CC(=O)c1ccccc1)Nc1cccc([N+](=O)[O-])c1	4.49 µM
CN1C(=O)c2cc(NC(=O)c3cccc(F)c3)ccc2OC[C@H]2O[C@@H](CC(=O)N3CCc4ccccc4C3)CC[C@H]21	18.4 µM
N#Cc1ccc(NC(=O)Nc2cccc(C#N)c2)cc1	4.49 µM
CN1C(=O)c2cc(NC(=O)c3cccc(F)c3)ccc2OC[C@@H]2O[C@H](CC(=O)N3CCc4ccccc4C3)CC[C@@H]21	17.2 µM
O=C(Nc1cccnc1)c1ccc(NS(=O)(=O)c2cccc([N+](=O)[O-])c2)cc1	8.48 µM
O=C(N/N=C/c1ccc(OCc2ccccc2)cc1)c1ccc(O)cc1	3.59 µM
CC(=O)Nc1ccc(S(=O)(=O)Nc2nc3ccccc3nc2Nc2cccc(S(N)(=O)=O)c2)cc1	12.7 µM
